Earlier results, collected in patent US20240285773A1, “METHODS OF TREATING MYELODYSPLASTIC SYNDROME AND MONITORING THE TREATMENT” (Geron Corporation, priority 2023, published 2024).

Tested on: patients with del(5q) MDS
Details: cited from earlier work

## Nc1cccc2c1CN(C1CCC(=O)NC1=O)C2=O (stereo not shown) [lenalidomide, 3-(4-Amino-1-oxoisoindolin-2-yl)piperidine-2,6-dione]
  Transfusion independence, proportion of patients: two-thirds
